Source: US8466162B2, “5-alkynyl-pyridines” (Boehringer Ingelheim International GmbH, priority 2011, dated 2013)

Experiments:
[1] = target: T1, PI3Kalpha (Homo sapiens, UniProt P42336); assay: Inhibition of PI3Kalpha-induced PIP-2 phosphorylation (filter-binding assay, 33P-ATP); assay type: biochemical; settings: PI3 Kinase alpha (p85alpha/His-p110alpha), 1 μM ATP; read-out: IC50 PI3Kα
T1 construct: His (N); made in house; host or cells: SF9 insect cells (baculovirus co-infection)
Method: Biological Methods Inhibition of PI3Kalpha-Induced PIP-2 Phosphorylation
See also J. A. Engelman, Nature Reviews Cancer, 2009, 9, 550-562; A. Carnero, Expert Opin. Investig. Drugs, 2009, 18, 1265-1277 and P. Liu et al., Nature Reviews Drug Discovery, 2009, 8, 627-64.
Method Type: Filter-Binding-Assay
Aliquoted in desired amounts and stored at −80° C. […] Assay Procedure
The substrate-containing lipid vesicles are dissolved to a concentration of 0.637 mg lipid blend/ml assay buffer (with BSA, freshly added) in 50 ml Falcon ->keep on ice, followed by ultrasonication (pulse of 15 sec followed by a pause of 10 sec, 4×). Compounds are serially diluted in assay buffer+6% DMSO and 10 μl of each dilution is added per well of a 96-well plate (compounds are tested in duplicates) and mixed with 30 μl of the lipid vesicles containing PDGFR-Peptide (0.5 μM final) and PI3K alpha (25 ng/well final). The mixture is then incubated for 20 minutes at room temperature.
Subsequently, 20 μl of assay buffer containing 3 μM cold ATP and 0.5 μCi/20 μl 33P-ATP are added. The plates are then incubated at room temperature for 120 minutes (shaking with 300 rpm).
The reaction mix is transferred onto filter plates using “filtermate harvester” from Packard: filter plates are rinsed with PBS, then the reaction mix is filtered onto the filter plate, washed 5 times with PBS and are allowed to dry for 30-60 minutes at 50° C. The plate bottom is sealed with Perkin Elmer white adhesive foil and 25 μl/well Microscint0 are added, the top is covered with transparent adhesive foil and the plate is measured with Wallac Trilux 1450 Microbeta Counter.
As positive control serve wells containing vehicle controls (1% DMSO in assay buffer), showing non-inhibited kinase activity (high values). Wells containing assay buffer instead of enzyme can serve as control for background activity (low values).
Calculate IC50 values using the Smiley program (based on GrapPad Prism)

[2] = test system: H460 cells; assay: alamarBlue H460 cell assay (antiproliferative/cytotoxicity); assay type: cell-based; settings: NCI-H460; H460 human lung carcinoma cells
Text: (§1) The H460, MB453, U87, MCF7 and BT474 alamarBlue cell assays provide EC50 values indicative of the antiproliferative or cytotoxic effects of the compounds to respectively the H460 (human non small cell line cancer), MB-453 (breast cancer cell line), U87 (glioblastoma cell line), MCF7 (breast cancer cell line) and BT474 (breast cancer cell line). As known in the field, antiproliferative or cytotoxic effect against this cell lines would be expected to be indicative of activity in treating lung, breast and brain cancers. See R. Marone R et al. Biochim. Biophys. Acta. 2008 January; 1784(1):159-85. S. Yaguchi et al., J. Natl. Cancer Inst. 2006 Apr. 19; 98(8):545-56.
(§2) Method Type: Antiproliferative/Cytotoxicity
(§3) alamarBlue® is designed to provide a rapid and sensitive measure of cell proliferation and cytotoxicity in various human and animal cell lines. The assay is based on the reduction of alamarBlue in the reducing environment of living (metabolically active) cells. In the presence of added cytotoxic or antiproliferative compounds, the innate metabolic activity ceases.
(§4) AlamarBlue is soluble and stable in culture medium. Measurements are made fluorometrically by exciting at 530-560 nm and measuring emission at 590 nm. In reporting percent alamarBlue reduction by monitoring fluorescence, data are expressed as fluorescence emission intensity units as a function of time of incubation.
(§5) 3. Equipment • 96-well plates, flat bottom (Falcon, Cat. No.: 353072) • 96-well plates, U-shaped (Costar, Cat. No.: 3799) • CO2-Incubator • Microplate Reader, Spectramax Plus, Molecular Devices 4. Typical Procedure • Day 0: Seed 3000 BT-474 cells (IMDM/5% FCS, 1% NEAA, 1% Sodiumpyruvat) in 150 μl medium into a 96-well plate, flat bottom (include mediumblank). Incubate plates at 37° C. in a CO2 incubator overnight. • Day 1: Dilute compounds to a concentration 40 μM ->1:3 in medium, 10 dilution steps, in 96-well plates. • Add 50 μl per well of each dilution (total volume per well 200 μl; final conc. of cpds: 10 μM ->1:3). If required, test further dilutions. • All concentrations are tested in duplicates. • Controls: Cells w/o cpd. (+50 μl medium/DMSO). • Cells are incubated with compounds for 5-6 days. • Day 6 or 7: Add 25 μl of alamarBlue solution to each well and incubate for 8 hours at 37° C. Measure fluorescence by exciting at 530-560 nm and measuring emission at 590 nm 5. Evaluation • Subtract average value for medium blank from sample readings • Calculate EC50 using GraphPad Prism (Fifty)

[3] = test system: MB453 cells; assay: alamarBlue MB453 cell assay (antiproliferative/cytotoxicity); assay type: cell-based; settings: Homo sapiens; MDA MB 453 breast cancer cell line
Text: as §1, §2, §3, §4, §5

[4] = test system: U87 cells; assay: alamarBlue U87 cell assay (antiproliferative/cytotoxicity); assay type: cell-based; settings: U-87MG human glioblastoma cells
Text: as §1, §2, §3, §4, §5

[5] = test system: MCF7 cells; assay: alamarBlue MCF7 cell assay (antiproliferative/cytotoxicity); assay type: cell-based; settings: MCF7 human breast cancer cell line
Text: as §1, §2, §3, §4, §5

[6] = test system: BT474 cells; assay: alamarBlue BT474 cell assay (antiproliferative/cytotoxicity); assay type: cell-based; settings: BT-474 human breast cancer cell line, 5-6 days incubation
Text: as §1, §2, §3, §4, §5

T1 sequence (P27986 whole entry): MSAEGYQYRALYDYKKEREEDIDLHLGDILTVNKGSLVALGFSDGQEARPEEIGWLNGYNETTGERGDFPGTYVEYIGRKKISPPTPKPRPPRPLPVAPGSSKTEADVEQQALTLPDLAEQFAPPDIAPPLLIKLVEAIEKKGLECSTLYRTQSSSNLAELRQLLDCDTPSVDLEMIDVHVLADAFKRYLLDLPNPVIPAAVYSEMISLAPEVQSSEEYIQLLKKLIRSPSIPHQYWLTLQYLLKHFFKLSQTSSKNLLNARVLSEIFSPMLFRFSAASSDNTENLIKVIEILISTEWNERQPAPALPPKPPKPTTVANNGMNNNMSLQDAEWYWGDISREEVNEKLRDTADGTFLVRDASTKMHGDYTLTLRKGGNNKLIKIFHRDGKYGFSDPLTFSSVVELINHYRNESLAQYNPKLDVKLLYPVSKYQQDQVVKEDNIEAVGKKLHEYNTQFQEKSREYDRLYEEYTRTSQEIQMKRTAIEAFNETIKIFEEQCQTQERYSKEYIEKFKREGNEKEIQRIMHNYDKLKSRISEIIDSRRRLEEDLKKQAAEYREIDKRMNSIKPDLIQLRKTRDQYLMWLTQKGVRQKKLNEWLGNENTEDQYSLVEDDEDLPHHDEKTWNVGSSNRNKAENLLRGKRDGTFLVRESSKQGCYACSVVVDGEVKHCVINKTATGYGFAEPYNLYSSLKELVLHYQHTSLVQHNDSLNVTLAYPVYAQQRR
T1 sequence (P42336 whole entry): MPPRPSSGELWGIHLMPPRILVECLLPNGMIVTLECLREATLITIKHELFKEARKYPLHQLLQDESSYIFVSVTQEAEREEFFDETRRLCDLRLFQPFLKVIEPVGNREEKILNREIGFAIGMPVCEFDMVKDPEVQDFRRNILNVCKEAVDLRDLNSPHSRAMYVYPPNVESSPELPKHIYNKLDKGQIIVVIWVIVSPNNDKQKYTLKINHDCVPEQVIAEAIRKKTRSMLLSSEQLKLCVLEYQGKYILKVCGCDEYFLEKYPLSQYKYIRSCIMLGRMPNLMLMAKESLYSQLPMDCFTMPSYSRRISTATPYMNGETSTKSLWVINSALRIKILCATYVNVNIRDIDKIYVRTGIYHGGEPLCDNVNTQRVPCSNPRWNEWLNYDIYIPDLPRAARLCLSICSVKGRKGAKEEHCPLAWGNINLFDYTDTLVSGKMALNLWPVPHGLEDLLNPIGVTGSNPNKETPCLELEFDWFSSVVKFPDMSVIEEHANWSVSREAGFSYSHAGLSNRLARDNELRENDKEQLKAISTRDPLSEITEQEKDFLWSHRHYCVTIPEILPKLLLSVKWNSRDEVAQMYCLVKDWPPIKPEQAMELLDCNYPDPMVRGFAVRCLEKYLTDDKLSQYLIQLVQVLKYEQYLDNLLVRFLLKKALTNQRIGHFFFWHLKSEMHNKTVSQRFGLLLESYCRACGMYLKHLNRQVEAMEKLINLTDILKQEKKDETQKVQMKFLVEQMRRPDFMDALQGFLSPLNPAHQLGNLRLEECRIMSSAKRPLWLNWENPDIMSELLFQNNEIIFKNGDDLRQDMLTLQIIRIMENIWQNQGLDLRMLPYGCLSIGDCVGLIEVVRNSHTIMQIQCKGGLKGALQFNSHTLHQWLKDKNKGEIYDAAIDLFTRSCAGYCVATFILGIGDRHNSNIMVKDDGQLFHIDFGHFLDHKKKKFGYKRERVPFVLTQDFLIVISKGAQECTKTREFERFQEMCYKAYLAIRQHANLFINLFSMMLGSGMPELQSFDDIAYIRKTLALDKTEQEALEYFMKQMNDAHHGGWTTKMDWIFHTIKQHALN

Row | Structure (SMILES) | IC50 [1] [nM] | EC50 [2] [nM] | EC50 [3] [nM] | EC50 [4] [nM] | EC50 [5] [nM] | EC50 [6] [nM]
1 | CCc1ncnc(-c2ccc(OC)c(OC)c2)c1C#Cc1cnc(C)c(NS(C)(=O)=O)c1 [Example 1, N-{5-[4-(3,4-Dimethoxy-phenyl)-6-ethyl-pyrimidin-5-ylethynyl]-2-methyl-pyridin-3-yl}-methanesulfonamide] | 1 | 490 | 79 | 300 | 39 | 94
2 | CCc1ncnc(-c2cccc(CN(C)C)c2)c1C#Cc1cnc(C)c(NS(C)(=O)=O)c1 [Example 2, N-{5-[4-(3-Dimethylaminomethyl-phenyl)-6-ethyl-pyrimidin-5-ylethynyl]-2-methyl-pyridin-3-yl}-methanesulfonamide] | 7 | 2820 | 394 | 1230 | 439 | 588
3 | CCc1ncnc(-c2ccc(C)nc2)c1C#Cc1cnc(C)c(NS(C)(=O)=O)c1 [Example 3, N-{5-[4-Ethyl-6-(6-methyl-pyridin-3-yl)-pyrimidin-5-ylethynyl]-2-methyl-pyridin-3-yl}-methanesulfonamide] | 1 | 368 | 112 | 410 | 23 | 177
4 | CCc1ncnc(-c2ccnc(C)c2)c1C#Cc1cnc(C)c(NS(C)(=O)=O)c1 [Example 4, N-{5-[4-Ethyl-6-(2-methyl-pyridin-4-yl)-pyrimidin-5-ylethynyl]-2-methyl-pyridin-3-yl}-methanesulfonamide] | 2 | 329 | 75 | 383 | 27 | 171
5 | CCc1cc(-c2ncnc(CC)c2C#Cc2cnc(C)c(NS(C)(=O)=O)c2)ccn1 [Example 5, N-{5-[4-Ethyl-6-(2-ethyl-pyridin-4-yl)-pyrimidin-5-ylethynyl]-2-methyl-pyridin-3-yl}-methanesulfonamide] | 0.63 | 159 | 54 | 220 | 34 | 117
6 | CCc1ncnc(-c2cc(C)nc(C)c2)c1C#Cc1cnc(C)c(NS(C)(=O)=O)c1 [Example 6, N-{5-[4-(2,6-Dimethyl-pyridin-4-yl)-6-ethyl-pyrimidin-5-ylethynyl]-2-methyl-pyridin-3-yl}-methanesulfonamide] | 1 | 169 | 49 | 243 | 28 | 104
7 | CCc1ncnc(-c2cccc(C(F)(F)F)c2OC)c1C#Cc1cnc(C)c(NS(C)(=O)=O)c1 [Example 7, N-{5-[4-Ethyl-6-(2-methoxy-3-trifluoromethyl-phenyl)-pyrimidin-5-ylethynyl]-2-methyl-pyridin-3-yl}-methanesulfonamide] | 2 | 358 | 381 | 475 | 223 | 543
8 | CCc1ncnc(-c2ccc(OC)c(F)c2)c1C#Cc1cnc(C)c(NS(C)(=O)=O)c1 [Example 8, N-{5-[4-Ethyl-6-(3-fluoro-4-methoxy-phenyl)-pyrimidin-5-ylethynyl]-2-methyl-pyridin-3-yl}-methanesulfonamide] | 1 | 241 | 184 | 910 | 99 | 279

Further lines, with some results ahead:

Row | IC50 [1] [nM] | Structure (SMILES) | EC50 [2] [nM] | EC50 [3] [nM] | EC50 [4] [nM] | EC50 [5] [nM] | EC50 [6] [nM]
9 | 0.54 | CCc1ncnc(-c2ccc(C)nc2)c1C#Cc1cnc(C)c(NS(=O)(=O)c2ccc(F)cc2F)c1 [Example 9, N-{5-[4-Ethyl-6-(6-methyl-pyridin-3-yl)-pyrimidin-5-ylethynyl]-2-methyl-pyridin-3-yl}-2,4-difluoro-benzenesulfonamide] | 49 | 36 | 248 | 7 | 24
10 | 0.56 | CCc1ncnc(-c2ccnc(C)c2)c1C#Cc1cnc(C)c(NS(=O)(=O)c2ccc(F)cc2F)c1 [Example 10, N-{5-[4-Ethyl-6-(2-methyl-pyridin-4-yl)-pyrimidin-5-ylethynyl]-2-methyl-pyridin-3-yl}-2,4-difluoro-benzenesulfonamide] | 92 | 69 | 326 | 29 | 75
11 | 1 | CCc1ncnc(-c2ccnc(C)c2)c1C#Cc1cnc(C)c(NS(=O)(=O)c2ccccc2Cl)c1 [Example 11, 2-Chloro-N-{5-[4-ethyl-6-(2-methyl-pyridin-4-yl)-pyrimidin-5-ylethynyl]-2-methyl-pyridin-3-yl}-benzenesulfonamide] | 103 | 190 | 686 | 74 | 
12 | 2 | CCc1ncnc(-c2ccnc(C)c2)c1C#Cc1cnc(C)c(NS(=O)(=O)c2ccc(C#N)cc2)c1 [Example 84, 4-Cyano-N-{5-[4-ethyl-6-(2-methyl-pyridin-4-yl)-pyrimidin-5-ylethynyl]-2-methyl-pyridin-3-yl}-benzenesulfonamide] | 769 | 190 | 778 | 85 | 
13 | 0.64 | CCc1ncnc(-c2ccc(CN)nc2)c1C#Cc1cnc(C)c(NS(=O)(=O)c2ccc(F)cc2F)c1 [Example 104, N-{5-[4-(6-Aminomethyl-pyridin-3-yl)-6-ethyl-pyrimidin-5-ylethynyl]-2-methyl-pyridin-3-yl}-2,4-difluoro-benzenesulfonamide] | 955 | 119 | 605 |  | 127
14 | 0.93 | CCc1ncnc(-c2ccc(CN)nc2)c1C#Cc1cnc(C)c(NS(=O)(=O)c2ccccc2C(F)(F)F)c1 [Example 105, N-{5-[4-(6-Aminomethyl-pyridin-3-yl)-6-ethyl-pyrimidin-5-ylethynyl]-2-methyl-pyridin-3-yl}-2-trifluoromethyl-benzenesulfonamide] | 958 | 152 | 406 |  | 1210
15 | 1 | CCc1ncnc(-c2ccc(CN)nc2)c1C#Cc1cnc(C)c(NS(=O)(=O)c2ccccc2)c1 [Example 106, N-{5-[4-(6-Aminomethyl-pyridin-3-yl)-6-ethyl-pyrimidin-5-ylethynyl]-2-methyl-pyridin-3-yl}-benzenesulfonamide] | 393 | 118 | 213 |  | 131
